Data: patent US20250051703A1, “EGG OPENER, EX OVO TUMOR XENOGRAFT METHOD, THERAPEUTIC COMPOUND ASSAY, THERAPEUTIC COMPOUND TESTING METHOD VIA EX OVO QUAIL EGG XENOGRAFT ASSAY” (CHILDREN'S CANCER THERAPY DEVELOPMENT INSTITUTE, priority 2021, published 2025)
“Also recorded” adds a separate entry of the source.

What was measured:
[1] = tested on: B16F10 murine melanoma cell line; assay: B16F10 xenograft CAM assay, radiance; type: in vivo; conditions: FIG. 18A
Method: (§1) Validation assays are conducted to correlate murine and human cell lines across a range of biologicals and small molecule drugs for pediatric and adult cell lines. B16F10 is a murine melanoma cell line constitutively expressing firefly luciferase (available as cat #BW124734 from Perkin-Elmer, Akron, Ohio USA), which is used to form a CAM xenograft as per the invention herein with the difference of being an adult-type cancer cell line, and radiance reflecting cell viability as impaired by drug. In FIGS. 18A-18J, to analyze drug efficacy on tumor cells, luciferin is added to the scaffold and then imaged by a CCD camera to determine the total xenograft cell viability, with the results indicated as radiance (e.g., steradians/cm^2/s) on the Y axis. See also FIG. 1 at Step 14.

[2] = tested on: HepG2 xenograft CAM assay; assay: Quail dose response assay (ex ovo CAM xenograft, osmotic bead drug depot), HepG2; type: in vivo, human; conditions: for dose-response in HepG2 xenograft CAM assay: FIGS. 18H and 18I, radiance
Method: (§2) The tumor modules for dose response assay are generated as described above but with 5×10^5 cells per 50 μl. Drug was dissolved in DMSO for all levels to a final tumor module concentration of vehicle control, 0.3 μM, 3 μM, or 30 μM with n=6. P-10 beads (catalog #1504144, Bio-Rad, Hercules, CA, USA) are soaked in PBS at the concentration of the modules for four hours at room temperature. Approximately 50 μl of bead solution is added to a 9.5×1.5 mm plastic ring placed on top of the tumor module forming a drug depot. The drug depot provided a constant source of drug keeping the tumor module at a constant concentration despite drug leaving the module for the quail, as shown in FIG. 17. The IR820 has an exponential range between 0.001 and 1 μM as shown in the dose-response curve of FIG. 17A in lumens v. IR820 concentration.
(§3) The quail with tumor module models and drug depots are incubated for 72 hours. Afterwards, 150 μl of 15 mg/ml luciferin (cat #122799, Perkin Elmer) in PBS is added to the modules incubated for 10 minutes and then imaged on an IVIS Lumina (PerkinElmer) for between 15 seconds (for cell lines HepG2) or 1 minute (for cell lines HB243 and HB282).
as §1, with “14. […]” for “14.”

[3] = cited from earlier work
[4] = tested on: e10 quail embryo liver and kidney; conditions: Japanese quail, in vivo
Method: Cediranib (Cat #S1017, Selleck Chemicals LLC, Houston, TX) and erlotinib (Cat #S7786) were purchased from Selleck Chemicals and reconstituted in dimethyl sulfoxide (DMSO) following the manufacturers recommendations and diluted to 10 mM stock concentration.
Fertilized Japanese quail eggs were incubated and plated as described previously. Quail were allowed to grow ex ovo in six-well plates until the quail had passed the patterning phase (e8 based on plating date). Each experimental arm was assigned n=4 viable quail and treated with one of four experimental conditions: vehicle, cediranib, ertoltinib, and cediranib+erlotinib. […] Stock concentrations were diluted in phosphate-buffered saline (PBS) to the respective target concentrations and to a final volume of 25 μL per agent. DMSO for vehicle was set at the DMSO volume used in the cediranib+erlotinib combination (8.4 μL DMSO).
Vehicle and diluted agents were subsequently applied dropwise to the quail chorioallantoic membrane. Quail were photographed at 0 hours, 24 hours, and 48 hours.

[5] = tested on: U48484 mouse rhabdomyosarcoma cells; assay: Quail tumor assay: U48484 tumor module xenograft on quail CAM, bioluminescence; type: in vivo
Method: U48484 mouse rhabdomyosarcoma cells were cultured, trypsinized and added to two different vials of hydrogel making a concentration of 10^6 cells per 50 μl. BEZ235 (cat #S1009, Selleck Chemicals, Houston, TX) in a solution of 0.1% DMF (cat #TS-20673, Thermo Fisher Scientific) in PBS was added to 10^6 U48484 mouse rhabdomyosarcoma cells mixed with 50 μl hydrogel for a final concentration of 500 nM BEZ235. For untreated eggs, 0.1% DMF in PBS was used as a control. 50 μl of cells/hydrogel/drug mixture were added to each scaffold and incubated for approximately 30-45 minutes at 37° C. and 100% humidity. As detailed above, a superficial injury was created on the chorioallantoic membrane and tumor module containing either drug or control was placed on top. Quail bearing tumor module models were incubated for 72 hours. Add the end of the incubation, 100 μl of PBS containing 1.5 mg of luciferin-d (cat #122799, PerkinElmer) was added to the 3D scaffold, incubated for 10 minutes in the dark, and bioluminescence was measured using a Fluorchem instrument (ProteinSimple, San Jose, CA). The quail were imaged with an 8 minute exposure for total light emission.
u48484 is a murine rhabdomyosarcoma cell line constitutively expressing firefly luciferase (available from the originating laboratory as described in Aslam et al, PDGFRβ reverses EphB4 signaling in alveolar rhabdomyosarcoma, Proc Natl Acad Sci USA. 2014 Apr. 29; 111 (17): 6383-8. doi: 10.1073/pnas. 1403608111; PMID 24733895), which is used to form a CAM xenograft as per the invention herein except being a non-human tumor cell line.
U48484 mouse rhabdomyosarcoma cells were cultured, trypsinized and added to two different vials of hydrogel making a concentration of 10^6 cells per 50 μl. […] Add the end of the incubation, 100 μl of PBS containing 1.5 mg of luciferin-d (cat #122799, Perkin Elmer) was added to the 3D scaffold, incubated for 10 minutes in the dark, and bioluminescence was measured using a Fluorchem instrument (Protein Simple, San Jose, CA). […]

[6] = tested on: Hep3B human hepatocellular carcinoma; conditions: literature (Li, et al.); cited from earlier work
[7] = tested on: HepG2 murine xenografts; assay: Murine in vivo xenograft study, HepG2; design: species or system mouse; conditions: FIG. 16F
Method: All studies in mice were performed after receiving approval from the institutional animal care and use committee (IACUC) at Children's Cancer Therapy Development Institute and in accordance with ARRIVE Guidelines. HepG2 and HB243 were suspended in Matrigel and injected into n=10 eight week-old female nod scid gamma mice per cell line xenograft (Charles River, Hollister, CA, NOD.CB17-Prkde^scid/NCrCrl) with 2×10^6 cells per 100 μl injection. […] The tumors were measured using calipers every 3 days and the equation for volume was V=L×W×H×0.5(π/6). At the study end or if the tumors reached 1.5 cc the tumors were removed and measured.
For the murine in vivo xenograft study survival analysis, the tumor endpoint volumes for time-to-event (TTE) analysis were set at 0.75 cc and were collected to 1.5 cc. […] Survival curve comparisons were analyzed using the Mantel-Cox and Gehan-Breslow-Wilcox tests (95% CI) through Graph Pad Prism 9.0 software. For the quail xenograft assay, significance was determined by an unpaired two-tailed t-test with Welch's correction and a p-value less than 0.05 was considered statistically significant. […]

[8] = tested on: HB243 hepatoblastoma cell line; assay: In vitro % viability dose-response, HB243; type: cell-based, human; conditions: n=4 replicates per point
[9] = tested on: HB243 murine xenografts; assay: Murine in vivo xenograft study, HB243; design: species or system mouse
Method: All studies in mice were performed after receiving approval from the institutional animal care and use committee (IACUC) at Children's Cancer Therapy Development Institute and in accordance with ARRIVE Guidelines. HepG2 and HB243 were suspended in Matrigel and injected into n=10 eight week-old female nod scid gamma mice per cell line xenograft (Charles River, Hollister, CA, NOD.CB17-Prkde^scid/NCrCrl) with 2×10^6 cells per 100 μl injection. […] Volasertib (cat #S2235, Selleck Chem) was suspended in 3.75% DMSO and corn oil (cat #C8267, Sigma-Aldrich, St Louis, MO) at a concentration of 1.5 mg/ml with 100 μl injected intraperitoneally with mice chosen for the drug and control group randomly selected to minimize selection bias. The mice were imaged by intraperitoneal injection of luciferin-d according to manufacturer's instructions. The tumors were measured using calipers every 3 days and the equation for volume was […]. At the study end or if the tumors reached 1.5 cc the tumors were removed and measured.
For the murine in vivo xenograft study survival analysis, the tumor endpoint volumes for time-to-event (TTE) analysis were set at 0.75 cc and were collected to 1.5 cc. TTE was defined in days by selecting the day in which the tumor volume equaled or surpassed 0.75 cc. […] The Kaplan-Meier survival plot represents the percentage of animals surviving at different time points during the study. These percentages were generated from the TTE data using GraphPad Prism 9.0 software (Graphpad Software, San Diego, CA, https://www.graphpad.com/scientific-software/prism/). Survival curve comparisons were analyzed using the Mantel-Cox and Gehan-Breslow-Wilcox tests (95% CI) through Graph Pad Prism 9.0 software. For the quail xenograft assay, significance was determined by an unpaired two-tailed t-test with Welch's correction and a p-value less than 0.05 was considered statistically significant. Error bars represent±standard error of the mean (SEM).

[10] = tested on: HB282 hepatoblastoma cell line; assay: In vitro % viability dose-response, HB282; type: cell-based; conditions: Homo sapiens, n=4 replicates per point
[11] = tested on: HB243 CAM xenograft; assay: Quail dose response assay (ex ovo CAM xenograft, osmotic bead drug depot), HB243; type: in vivo; conditions: Homo sapiens, osmotic bead delivery, 72 hours, read-out: 50% tumor growth inhibition (ex ovo IC50), HB243
Method: as §2, §3
(§4) The tumor modules for dose response assay were generated as described above but with 5×10^5 cells per 50 μl. […]

[12] = tested on: HepG2 hepatoblastoma cell line; assay: In vitro % viability dose-response, HepG2; type: cell-based; conditions: Homo sapiens, n=4 replicates per point
[13] = tested on: HB282 CAM xenograft; assay: Quail dose response assay (ex ovo CAM xenograft, osmotic bead drug depot), HB282; type: in vivo; conditions: Homo sapiens, osmotic bead delivery, 72 hours, read-out: 50% tumor growth inhibition (ex ovo IC50), HB282
Method: as §2, §3, §4

[14] = tested on: murine glioma cell line GL261; conditions: literature (Yang, et al.); cited from earlier work
[15] = tested on: murine glioma cell line GL261; conditions: literature (Yang, et al.); cited from earlier work; remark: listed apart in the source
[16] = tested on: BT474 human breast cancer cell line; assay: BT474 xenograft CAM assay, radiance; type: in vivo; conditions: FIGS. 18C and 18D

For `Cc1ncsc1-c1ccc(CNC(=O)[C@@H]2C[C@@H](O)CN2C(=O)[C@@H](NC(=O)COCCOCCOCCNC(=O)C[C@@H]2N=C(c3ccc(Cl)cc3)c3c(sc(C)c3C)-n3c(C)nnc32)C(C)(C)C)cc1` [MZ1], the “dose-response in B16F10 xenograft CAM assay” value [1] was “dose-response relationship exists” and the “dose-response in HepG2 xenograft CAM assay” value [2] was “dose-response relationship can be observed”.
For `COc1cc2c(Oc3ccc4[nH]c(C)cc4c3F)ncnc2cc1OCCCN1CCCC1` [cediranib], the “maximum clinically-achievable serum concentrations (Cmax) in human patients” value [3] is given as 42 ng/mL and the “remaining viable quail 48 hours after dosing” value [4] is given as 3.
For `Cn1c(=O)n(-c2ccc(C(C)(C)C#N)cc2)c2c3cc(-c4cnc5ccccc5c4)ccc3ncc21` [BEZ235], the “significance p, treated (n=6) vs vehicle control (n=4), tumor bioluminescence” value ([5]; FIG. 14, unpaired two-tailed t-test with Welch's correction) was 0.0048, the “inhibition of tumor growth in u48484 xenograft CAM assay” value ([5]; FIG. 18J) was “drug-related inhibition of tumor growth can be observed” and the inhibition at 0.5 µM ([5]; Mus musculus, Rhabdomyosarcoma cell, 500 nM in the hydrogel volume, 72 hours on CAM, read-out: reduction in U48484 tumor module bioluminescence (tumor cell viability)) was 20%.
For `Cc1sc2c(c1C)C(c1ccc(Cl)cc1)=N[C@@H](CC(=O)OC(C)(C)C)c1nnc(C)n1-2` [JQ1], the “efficacy against Hep3B in vivo” value [6] is listed as “showed efficacy”.
In the case of `CC[C@@H]1C(=O)N(C)c2cnc(Nc3ccc(C(=O)N[C@H]4CC[C@H](N5CCN(CC6CC6)CC5)CC4)cc3OC)nc2N1C(C)C` [volasertib], the “survival / response of HepG2 mouse xenograft” value [7] is reported as “no increase in survival; also recorded: continued to be resistant”, the IC50 ([8]; Homo sapiens) is reported as 191 nM and the IC50 [8] is reported as 282 nM. For the same compound, the “tumor growth of HB243 mouse xenograft relative to the control group” value ([9]; FIG. 16E) was “statistically significant reduction in growth”, the “treatment mice surviving to the endpoint longer than control (average)” value ([9]; HB243 mouse xenograft, vs vehicle) was 4.5 days and the “survival of HB243 murine xenografts, treatment vs control, p (Mantel-Cox test)” value ([9]; n=4, event = tumor volume equal or greater than 0.75 cc, intraperitoneal) was 0.031. For the same compound, the IC50 [10] was 916 nM, the IC50 [11] was 1460 nM and the IC50 [12] was 508 nM. The “sensitivity of HepG2 ex ovo” value ([2]; FIG. 16D, CAM xenograft, osmotic bead delivery, 72 hours) was “insensitive at any concentration”, the “dose-response in HepG2 xenograft CAM assay” value [2] was “dose-response relationship can be observed” and the IC50 [13] was 1040 nM.
In the case of `Cc1sc2c(c1C)C(c1ccc(Cl)cc1)=N[C@@H](CC(=O)Nc1ccc(OCCOCCOCCOCCNc3cccc4c3C(=O)N(C3CCC(=O)NC3=O)C4=O)cc1)c1nnc(C)n1-2` (stereo partly shown) [ARV-825], the “efficacy against GL261 in vitro” value [14] is listed as “showing efficacy” and the “efficacy against GL261 in vivo” value [15] is listed as “showing efficacy”.
With `CS(=O)(=O)CCNCc1ccc(-c2ccc3ncnc(Nc4ccc(OCc5cccc(F)c5)c(Cl)c4)c3c2)o1` [lapatinib] the “dose-response in BT474 xenograft CAM assay” value [16] was “dose-response relationship”.
For `C#Cc1cccc(Nc2ncnc3cc(OCCOC)c(OCCOC)cc23)c1` [erlotinib], the “maximum clinically-achievable serum concentrations (Cmax) in human patients” value [3] is given as 1300 ng/mL and the “remaining viable quail 48 hours after dosing” value [4] is given as 3.
